In patent US9132164B2, “Pharmaceutical compositions comprising angiotensin-(1-9), derivatives thereof, or a vector expressing ACE2, useful for treating cardiovascular, pulmonary, cerebral, and/or renal remodeling” (PONTIFICIA UNIVERSIDAD CATOLICA DE CHILE, priority 2008, dated 2015):
Marks after values point to notes of the source that are not given here.

Key:
Format in all cases: in vivo, Sprague Dawley rats
[1] = tested on: sham and infarcted rats (left coronary artery ligation); experiment: Effect of candesartan and enalapril on blood pressure, morphometry and function of the left ventricle after coronary artery ligation; details: for Infarct size LV / LVAWT / LVEDD / LVESD / LVFS / SBP / LLVWT / LVP content / LVW/BW / mRNA ANF / β-MHC: 10 mg/kg daily by gavage, 8 weeks, average ± SEM
Procedure: (§1) Male Sprague Dawley rats were kept in cages with access to water and food ad libitum. This procedure was performed in accordance with the Guide for the Care and Use of Laboratory Animals, published by “U.S. National Institutes of Health” (NIH publication No 85-23, revised 1985) and was approved by our Institutional Ethics Committee. For studies with enalapril and candesartan, 71 adult normotensive rats were randomly separated into two groups and underwent a sham surgery (surgery without ligation of the coronary artery, n=34) or myocardial infarction following a surgery with ligation of the left coronary artery (infarction, n=37) as previously described (Ocaranza et al, Hypertension 48:572-8, 2006). Briefly, the left coronary artery was ligated between the pulmonary artery exit and left auricle with a 7-0 silk suture under aseptic conditions in rats anaesthetized with ketamine-HCl/xilazine (35/7 mg/kg intraperitoneal, respectively). Sham rats underwent the same surgical procedure except that the suture was not passed around the left coronary artery. Myocardial infarction was confirmed by electrocardiography 24 h following surgery. Mortality rate from myocardial infarction following ligation of the left coronary artery was 25% within 48 h after occlusion. Infarct size in survivors was determined by planimetry of endocardial circumference of left ventricle on histological sections. Sham and infracted rats were randomized to receive the carrier, candesartan (10 mg/kg of body weight daily) or enalapril (10 mg/kg of body weight daily) by gavage for 8 weeks, beginning 48 h after infarction.
Systolic blood pressure (SBP) was determined by using the “tail-cuff” method by investigators who were blind to the treatment group. Left ventricle function was determined by transthoracic bidimensional echocardiography using a Sonos 5000 equipped with a 5 to 12 MHz sectorial electronic ultraband S12 Philips transducer. The following echocardiographic parameters were determined: left ventricular end-systolic diameter (LVESD), left ventricular end diastolic diameter (LVEDD), left ventricular fractional shortening (LVFS), left ventricular anterior wall thickness (LVAWT), and left ventricular posterior wall thickness (LLVWT).
The extent of left ventricular hypertrophy was calculated by the relationship among left ventricular weight (LVW), body weight (BW), mRNA relative levels of the auricular natriuretic factor (ANF), left ventricular protein content (LVP), and protein levels of β-myosinheavy chain (β-MHC) as described in (Ocaranza et al, Hypertension 48:572-8, 2006).
Left ventricular hypertrophy (LVH) was assessed by ecocardiography, relative left ventricle weight (RLVW, mg left ventricle weight (LVW)/body weight (BW)), relative levels of auricular natriuretic factor (ANF) mRNA, left ventricle protein (LVP) content, and β-myosin heavy chain (β-MHC) content are described in example 1.

[2] = Circulating angiotensin levels post coronary artery ligation (HPLC and radioimmunoassay); details: for Ang I / Ang II / Ang II/Ang I / Ang-(1 -7) / Ang-(1-7)/Ang II / Ang-(1 -9) / Ang-(1-9)/Ang I: plasma, 10 mg/kg daily, 8 weeks, average ± SEM
Procedure: as §1
(§2) Plasma angiotensin and bradykinin levels were determined as described by (Ocaranza et al, Hypertension 48:572-8, 2006; Ocaranza et al, Life Sci. 78:1535-42, 2005; Campbell et al, J. Mol. Cell. Cardiol. 27:1545-60, 1995). Briefly, rats were anesthetized with a combination of ketamin (125 mg/kg) and xilazin (12.5 mg/kg) administered via intraperitoneal injection. […] Plasmas were stored at −80° C. until their extraction using C18 Sep-Pak cartridges, and peptides were acetylated. Acetylated angiotensin II, angiotensin I, angiotensin-(1-7), angiotensin-(1-9), bradykinin-(1-7) and bradykinin-(1-9) were separated by high performance liquid chromatography (HPLC) and were detected by radioimmunoassay.
(§3) Plasma angiotensin and bradykinin (BK) levels were determined by high performance liquid chromatography and radioimmunoassay as described in example No 2. Angiotensin-I levels are lower in the infarcted rats group, associated with higher levels of angiotensin-II. However, plasma angiotensin-(1-7) and angiotensin-(1,9) levels were similar in sham rats and infarcted rats. Enalapril and candesartan increase both angiotensin-(1-9) circulating levels, and -(1-7)/angiotensin-II and angiotensin-(1-9)/angiotensin-I ratios in both experimental groups. Plasma angiotensin-(1-7) levels were increased by candesartan, and bradykinin-(1-9) levels were increased by enalapril both in infarcted rats and sham rats (Tables 3 and 4).

[3] = Circulating bradykinin levels post coronary artery ligation (HPLC and radioimmunoassay); details: for Bk-(1-7) / Bk-(1-7)/Bk-(1-9) / Bk-(1-9): plasma, 10 mg/kg daily, 8 weeks, ± SEM
Procedure: as §1, §2, §3

[4] = both experimental groups (sham and infarcted rats)

## CCOc1nc2cccc(C(=O)O)c2n1Cc1ccc(-c2ccccc2-c2nnn[nH]2)cc1 [candesartan]
[1]; infarcted rats (MI)
  Infarct size LV: 30 ± 1%
  LVAWT: 0.9 ± 0.4 mm
  LVEDD: 8.0 ± 0.3 mm
  LVESD: 5.9 ± 0.4 mm
  LVFS: 22 ± 2 %
  SBP: 88 ± 4*^#¶ mm Hg
[1]; sham rats
  LLVWT: 1.1 ± 0.0 mm
  LVAWT: 1.1 ± 0.4 mm
  LVEDD: 7.7 ± 0.2 mm
  LVESD: 5.1 ± 0.1 mm
  LVFS: 30 ± 2%
  LVP content: 11.6 ± 1.1 mg
  LVW/BW: 2.7 ± 0.1 mg/g
  SBP: 84 ± 4*^#¶ mm Hg
  mRNA ANF: 0.7 ± 0.2 times
  β-MHC: 1.1 ± 0.2 times
[2]; infarcted rats (MI)
  Ang I: 30.7 ± 1.9 fmol/g
  Ang II: 34.6 ± 4.2*^¶ fmol/g
  Ang II/Ang I: 4.5 ± 0.6*^#¶
  Ang-(1 -7): 14.4 ± 2.7*^#¶ fmol/g
  Ang-(1-7)/Ang II: 1.02 ± 0.06*^#¶
  Ang-(1 -9): 43.8 ± 2.9 *^#¶ fmol/g
  Ang-(1-9)/Ang I: 2.8 ± 1.1*^#¶
[2]; sham rats
  Ang I: 22.6 ± 5.3 fmol/g
  Ang II: 38.6 ± 7.2 fmol/g
  Ang II/Ang I: 3.3 ± 0.9
  Ang-(1 -7): 10.9 ± 1.6*^#¶ fmol/g
  Ang-(1-7)/Ang II: 0.49 ± 0.15
  Ang-(1 -9): 36.2 ± 4.1 fmol/g
  Ang-(1-9)/Ang I: 2.6 ± 0.7
[3]; infarcted rats (MI)
  Bk-(1-7): 5.44 ± 1.60 fmol/g
  Bk-(1-7)/Bk-(1-9): 1.18 ± 0.21^¶
  Bk-(1-9): 4.08 ± 1.43^¶ fmol/g
[3]; sham rats
  Bk-(1-7): 4.41 ± 1.5 fmol/g
  Bk-(1-7)/Bk-(1-9): 1.69 ± 0.51
  Bk-(1-9): 4.30 ± 1.36 fmol/g

## CCOC(=O)[C@H](CCc1ccccc1)N[C@@H](C)C(=O)N1CCC[C@H]1C(=O)O [enalapril]
[1]; infarcted rats (MI)
  Infarct size LV: 31 ± 2%
  LLVWT: 1.5 ± 0.1 mm
  LVAWT: 0.9 ± 0.1 mm
  LVEDD: 7.1 ± 0.2 mm
  LVESD: 5.4 ± 0.3 mm
  LVFS: 21 ± 1 %
  SBP: 110 ± 3 mm Hg
[1]; infarcted rats, week 8
  left ventricle dilatation: significantly prevented
[1]; sham rats
  LLVWT: 1.4 ± 0.0 mm
  LVAWT: 1.3 ± 0.2 mm
  LVEDD: 7.5 ± 0.3 mm
  LVESD: 5.2 ± 0.1 mm
  LVFS: 30 ± 1%
  LVP content: 12.4 ± 0.8 mg
  LVW/BW: 2.7 ± 0.2 mg/g
  SBP: 113 ± 2 mm Hg
  mRNA ANF: 0.9 ± 0.1 times
  β-MHC: 1.3 ± 0.2 times
[2]; [4]
  -(1-7)/angiotensin-II ratio: increase
  angiotensin-(1-9) circulating levels: increase
  angiotensin-(1-9)/angiotensin-I ratio: increase
[2]; infarcted rats (MI)
  Ang I: 32.4 ± 0.8 fmol/g
  Ang II: 23.3 ± 5.4 fmol/g
  Ang II/Ang I: 0.72 ± 0.1
  Ang-(1 -7): 3.8 ± 0.6 fmol/g
  Ang-(1-7)/Ang II: 0.26 ± 0.02
  Ang-(1 -9): 29 ± 3 fmol/g
  Ang-(1-9)/Ang I: 0.89 ± 0.02
[2]; sham rats
  Ang I: 30.7 ± 1.0 fmol/g
  Ang II: 15.4 ± 3.8 fmol/g
  Ang II/Ang I: 0.45 ± 0.05
  Ang-(1 -7): 4.1 ± 0.5 fmol/g
  Ang-(1-7)/Ang II: 0.25 ± 0.07
  Ang-(1 -9): 25 ± 5 fmol/g
  Ang-(1-9)/Ang I: 0.75 ± 0.03
[3]; both in infarcted rats and sham rats
  bradykinin-(1-9) levels: increased
[3]; infarcted rats (MI)
  Bk-(1-7): 1.40 ± 0.17 fmol/g
  Bk-(1-7)/Bk-(1-9): 0.17 ± 0.06
  Bk-(1-9): 7.89 ± 1.22 fmol/g
[3]; sham rats
  Bk-(1-7): 1.48 ± 0.46 fmol/g
  Bk-(1-7)/Bk-(1-9): 0.19 ± 0.04
  Bk-(1-9): 9.53 ± 2.99 fmol/g
